Reference: ChEMBL document CHEMBL5247602, “Developing a Naïve Bayesian Classification Model with PI3Kγ structural features for virtual screening against PI3Kγ: Combining molecular docking and pharmacophore based on multiple PI3Kγ conformations” (Eur J Med Chem, 2022)
pIC50: −log10 of the molar value.

Columns and labels:
[1] = target: Phosphatidylinositol 4,5-bisphosphate 3-kinase catalytic subunit alpha isoform (Homo sapiens, UniProt P42336); test: Inhibition of PI3Kalpha (unknown origin) preincubated for 10 mins followed by ATP addition and measured after 60 mins by ADP-Glo assay
RAW264.7 [2] = test: Inhibition of PI3K/AKT signalling pathway in mouse RAW264.7 cells assessed as reduction in LPS-stimulated phosphorylation of AKT at Ser473 residue at 5 to 20 uM preincubated with compound followed by LPS stimulation for 6 hrs by Western blot analysis; type: cell-based; conditions: dose 5-20 µM, TDE = time-dependent effect
[3] = target: T1, Phosphatidylinositol 4,5-bisphosphate 3-kinase catalytic subunit delta isoform (Homo sapiens, UniProt O00329); test: Inhibition of PI3Kdelta (unknown origin) preincubated for 10 mins followed by ATP addition and measured after 60 mins by ADP-Glo assay
T1 sequence (O00329 whole entry): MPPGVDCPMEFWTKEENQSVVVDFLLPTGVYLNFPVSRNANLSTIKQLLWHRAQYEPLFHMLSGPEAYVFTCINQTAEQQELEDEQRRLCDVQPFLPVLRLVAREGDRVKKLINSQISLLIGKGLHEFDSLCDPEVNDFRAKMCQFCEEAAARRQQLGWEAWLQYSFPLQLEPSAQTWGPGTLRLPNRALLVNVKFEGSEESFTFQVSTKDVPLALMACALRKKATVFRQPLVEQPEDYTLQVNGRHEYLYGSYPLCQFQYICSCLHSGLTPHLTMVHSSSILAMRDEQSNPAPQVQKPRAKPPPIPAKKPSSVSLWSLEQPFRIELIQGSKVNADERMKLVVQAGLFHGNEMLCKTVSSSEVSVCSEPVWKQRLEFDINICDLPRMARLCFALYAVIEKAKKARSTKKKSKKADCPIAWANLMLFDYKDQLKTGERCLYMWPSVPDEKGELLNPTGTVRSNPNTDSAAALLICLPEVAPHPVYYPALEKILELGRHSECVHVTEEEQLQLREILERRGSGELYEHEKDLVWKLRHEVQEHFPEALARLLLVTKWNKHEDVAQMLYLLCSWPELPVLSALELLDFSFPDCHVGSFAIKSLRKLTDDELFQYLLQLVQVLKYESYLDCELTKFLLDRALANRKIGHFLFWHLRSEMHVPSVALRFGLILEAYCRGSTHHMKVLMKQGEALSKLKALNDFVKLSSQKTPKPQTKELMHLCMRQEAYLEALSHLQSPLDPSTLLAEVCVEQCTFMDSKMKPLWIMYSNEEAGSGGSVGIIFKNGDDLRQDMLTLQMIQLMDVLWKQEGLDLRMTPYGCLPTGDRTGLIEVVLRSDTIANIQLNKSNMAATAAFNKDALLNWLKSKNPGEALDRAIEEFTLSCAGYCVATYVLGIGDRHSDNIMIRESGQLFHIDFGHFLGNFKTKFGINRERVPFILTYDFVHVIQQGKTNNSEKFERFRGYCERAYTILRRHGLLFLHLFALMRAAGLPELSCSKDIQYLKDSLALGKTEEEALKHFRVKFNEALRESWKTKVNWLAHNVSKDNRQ

RAW264.7 [4] = test: Inhibition of PI3K/AKT signalling pathway in mouse RAW264.7 cells assessed as reduction in LPS-stimulated phosphorylation of AKT at Ser473 residue preincubated for 6 hrs followed by LPS stimulation for 6 hrs by Western blot analysis; type: cell-based; conditions: dose 5-20 µM, time 12.0 hrs
[5] = target: T2, Phosphatidylinositol 4,5-bisphosphate 3-kinase catalytic subunit gamma isoform (Homo sapiens, UniProt P48736); test: Inhibition of PI3Kgamma (unknown origin) at 10 uM preincubated for 10 mins followed by ATP addition and measured after 60 mins by ADP-Glo assay relative to control; conditions: time 70.0 min
Target sequence in this assay (P48736 whole entry, looked up, canonical isoform): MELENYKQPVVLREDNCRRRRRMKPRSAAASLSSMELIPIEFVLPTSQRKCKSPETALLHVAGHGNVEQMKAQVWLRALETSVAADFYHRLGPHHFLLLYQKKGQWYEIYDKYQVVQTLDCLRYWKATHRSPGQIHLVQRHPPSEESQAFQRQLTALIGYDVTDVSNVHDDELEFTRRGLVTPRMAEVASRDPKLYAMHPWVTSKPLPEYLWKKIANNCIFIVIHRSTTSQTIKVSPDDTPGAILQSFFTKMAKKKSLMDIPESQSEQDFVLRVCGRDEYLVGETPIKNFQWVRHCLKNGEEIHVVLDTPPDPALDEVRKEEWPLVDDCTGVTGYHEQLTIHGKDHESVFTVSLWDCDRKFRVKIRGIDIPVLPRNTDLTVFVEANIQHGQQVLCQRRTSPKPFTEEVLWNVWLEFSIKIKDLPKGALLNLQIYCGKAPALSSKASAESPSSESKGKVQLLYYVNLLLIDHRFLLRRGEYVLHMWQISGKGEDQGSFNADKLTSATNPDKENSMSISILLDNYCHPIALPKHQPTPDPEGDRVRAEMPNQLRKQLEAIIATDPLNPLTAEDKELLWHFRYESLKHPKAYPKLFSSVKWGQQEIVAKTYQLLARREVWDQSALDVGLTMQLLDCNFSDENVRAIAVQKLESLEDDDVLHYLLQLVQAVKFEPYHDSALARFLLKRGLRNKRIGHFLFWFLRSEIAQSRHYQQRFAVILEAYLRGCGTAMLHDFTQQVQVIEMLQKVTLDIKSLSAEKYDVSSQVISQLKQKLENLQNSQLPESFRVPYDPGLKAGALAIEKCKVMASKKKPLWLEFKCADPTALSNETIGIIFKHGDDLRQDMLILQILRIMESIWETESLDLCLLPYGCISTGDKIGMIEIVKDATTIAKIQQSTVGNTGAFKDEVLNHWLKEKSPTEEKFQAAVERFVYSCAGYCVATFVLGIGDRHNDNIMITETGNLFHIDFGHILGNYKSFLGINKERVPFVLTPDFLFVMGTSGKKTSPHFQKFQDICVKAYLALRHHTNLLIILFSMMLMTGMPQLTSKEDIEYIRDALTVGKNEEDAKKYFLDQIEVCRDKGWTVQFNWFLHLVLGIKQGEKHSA

[6] = target: Phosphatidylinositol 4,5-bisphosphate 3-kinase catalytic subunit gamma isoform (Mus musculus) (UniProt Q9JHG7); test: Inhibition of PI3Kgamma in mouse RAW264 cells assessed as reduction in LPS-stimulated TNFalpha mRNA expression preincubated for 6 hrs followed by LPS addition and measured after 24 hrs by RT-PCR analysis; type: cell-based; conditions: RAW264.7, dose 1.2-10 µM, time 30.0 hrs
[7] = target: T2, Phosphatidylinositol 4,5-bisphosphate 3-kinase catalytic subunit gamma isoform; test: Inhibition of PI3Kgamma (unknown origin) preincubated for 10 mins followed by ATP addition and measured after 60 mins by ADP-Glo assay
Target sequence in this assay (P48736 whole entry, canonical isoform): as the sequence (P48736 whole entry, looked up, canonical isoform) above

[8] = target: Phosphatidylinositol 4,5-bisphosphate 3-kinase catalytic subunit beta isoform (Homo sapiens, UniProt P42338); test: Inhibition of PI3Kbeta (unknown origin) preincubated for 10 mins followed by ATP addition and measured after 60 mins by ADP-Glo assay
[9] = target: Phosphatidylinositol 4,5-bisphosphate 3-kinase catalytic subunit gamma isoform (Mus musculus) (UniProt Q9JHG7); test: Inhibition of PI3Kgamma in mouse RAW264 cells assessed as reduction in LPS-stimulated IL-6 mRNA expression preincubated for 6 hrs followed by LPS addition and measured after 24 hrs by RT-PCR analysis; type: cell-based; conditions: RAW264.7, dose 1.2-10 µM, time 30.0 hrs

Chain of Phosphatidylinositol 4,5-bisphosphate 3-kinase catalytic subunit gamma isoform (Mus musculus) (Q9JHG7 whole entry, looked up, canonical isoform): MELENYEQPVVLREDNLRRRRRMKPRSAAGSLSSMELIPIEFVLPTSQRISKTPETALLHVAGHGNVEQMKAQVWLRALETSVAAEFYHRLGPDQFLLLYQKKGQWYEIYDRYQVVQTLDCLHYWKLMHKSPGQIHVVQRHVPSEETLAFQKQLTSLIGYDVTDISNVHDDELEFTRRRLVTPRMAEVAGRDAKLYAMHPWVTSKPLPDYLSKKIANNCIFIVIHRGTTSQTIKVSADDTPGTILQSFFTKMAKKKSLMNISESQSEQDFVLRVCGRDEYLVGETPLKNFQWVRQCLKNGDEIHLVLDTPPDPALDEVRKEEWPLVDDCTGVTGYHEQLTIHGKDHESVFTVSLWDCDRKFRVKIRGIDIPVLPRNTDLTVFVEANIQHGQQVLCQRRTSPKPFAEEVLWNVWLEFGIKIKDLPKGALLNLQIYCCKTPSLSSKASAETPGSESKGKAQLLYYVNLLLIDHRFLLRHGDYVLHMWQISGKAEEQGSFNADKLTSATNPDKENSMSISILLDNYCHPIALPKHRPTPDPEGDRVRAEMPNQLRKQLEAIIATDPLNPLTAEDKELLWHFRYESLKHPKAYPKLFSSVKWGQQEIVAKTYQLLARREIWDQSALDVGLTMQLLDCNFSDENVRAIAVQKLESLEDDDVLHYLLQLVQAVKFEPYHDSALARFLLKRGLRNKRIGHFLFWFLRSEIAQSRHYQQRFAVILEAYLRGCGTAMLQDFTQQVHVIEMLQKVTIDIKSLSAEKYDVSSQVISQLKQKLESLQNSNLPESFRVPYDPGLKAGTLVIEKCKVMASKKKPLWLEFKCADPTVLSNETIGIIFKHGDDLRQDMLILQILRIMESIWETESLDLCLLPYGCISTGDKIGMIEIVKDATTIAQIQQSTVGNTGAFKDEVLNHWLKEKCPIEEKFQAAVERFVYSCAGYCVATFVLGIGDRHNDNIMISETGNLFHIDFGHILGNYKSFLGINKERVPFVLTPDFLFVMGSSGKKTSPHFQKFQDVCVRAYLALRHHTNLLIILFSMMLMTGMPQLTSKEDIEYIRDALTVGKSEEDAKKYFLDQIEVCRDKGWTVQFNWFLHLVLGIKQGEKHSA
Chain of Phosphatidylinositol 4,5-bisphosphate 3-kinase catalytic subunit beta isoform (P42338 whole entry, canonical isoform): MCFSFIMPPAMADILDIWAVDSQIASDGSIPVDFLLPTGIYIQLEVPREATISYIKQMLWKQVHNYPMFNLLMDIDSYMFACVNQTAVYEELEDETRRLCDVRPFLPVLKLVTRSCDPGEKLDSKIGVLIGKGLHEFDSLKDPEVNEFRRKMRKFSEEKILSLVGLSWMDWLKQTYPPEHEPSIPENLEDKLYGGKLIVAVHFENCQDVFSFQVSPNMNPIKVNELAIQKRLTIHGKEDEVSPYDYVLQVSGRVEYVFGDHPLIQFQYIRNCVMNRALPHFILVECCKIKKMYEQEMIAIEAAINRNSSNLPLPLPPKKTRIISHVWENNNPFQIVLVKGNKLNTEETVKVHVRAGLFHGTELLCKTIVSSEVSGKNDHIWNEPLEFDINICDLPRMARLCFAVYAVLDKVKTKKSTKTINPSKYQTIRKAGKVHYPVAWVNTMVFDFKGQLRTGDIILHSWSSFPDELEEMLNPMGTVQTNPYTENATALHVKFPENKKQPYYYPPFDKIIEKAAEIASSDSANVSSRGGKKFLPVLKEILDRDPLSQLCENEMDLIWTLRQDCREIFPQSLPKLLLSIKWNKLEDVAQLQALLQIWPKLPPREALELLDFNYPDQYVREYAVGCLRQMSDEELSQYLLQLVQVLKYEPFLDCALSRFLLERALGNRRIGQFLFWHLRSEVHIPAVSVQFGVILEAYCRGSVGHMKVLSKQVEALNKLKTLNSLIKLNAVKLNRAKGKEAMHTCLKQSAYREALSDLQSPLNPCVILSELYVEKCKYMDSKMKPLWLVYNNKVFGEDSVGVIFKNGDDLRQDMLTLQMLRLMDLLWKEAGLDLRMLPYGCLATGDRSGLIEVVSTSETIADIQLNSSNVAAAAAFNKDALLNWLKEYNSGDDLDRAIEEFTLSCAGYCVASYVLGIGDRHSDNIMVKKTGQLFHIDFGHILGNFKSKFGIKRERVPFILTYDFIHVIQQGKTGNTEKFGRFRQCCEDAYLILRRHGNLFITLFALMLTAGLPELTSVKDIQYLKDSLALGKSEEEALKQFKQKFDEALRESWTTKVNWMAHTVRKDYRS
Chain of Phosphatidylinositol 4,5-bisphosphate 3-kinase catalytic subunit alpha isoform (P42336 whole entry, canonical isoform): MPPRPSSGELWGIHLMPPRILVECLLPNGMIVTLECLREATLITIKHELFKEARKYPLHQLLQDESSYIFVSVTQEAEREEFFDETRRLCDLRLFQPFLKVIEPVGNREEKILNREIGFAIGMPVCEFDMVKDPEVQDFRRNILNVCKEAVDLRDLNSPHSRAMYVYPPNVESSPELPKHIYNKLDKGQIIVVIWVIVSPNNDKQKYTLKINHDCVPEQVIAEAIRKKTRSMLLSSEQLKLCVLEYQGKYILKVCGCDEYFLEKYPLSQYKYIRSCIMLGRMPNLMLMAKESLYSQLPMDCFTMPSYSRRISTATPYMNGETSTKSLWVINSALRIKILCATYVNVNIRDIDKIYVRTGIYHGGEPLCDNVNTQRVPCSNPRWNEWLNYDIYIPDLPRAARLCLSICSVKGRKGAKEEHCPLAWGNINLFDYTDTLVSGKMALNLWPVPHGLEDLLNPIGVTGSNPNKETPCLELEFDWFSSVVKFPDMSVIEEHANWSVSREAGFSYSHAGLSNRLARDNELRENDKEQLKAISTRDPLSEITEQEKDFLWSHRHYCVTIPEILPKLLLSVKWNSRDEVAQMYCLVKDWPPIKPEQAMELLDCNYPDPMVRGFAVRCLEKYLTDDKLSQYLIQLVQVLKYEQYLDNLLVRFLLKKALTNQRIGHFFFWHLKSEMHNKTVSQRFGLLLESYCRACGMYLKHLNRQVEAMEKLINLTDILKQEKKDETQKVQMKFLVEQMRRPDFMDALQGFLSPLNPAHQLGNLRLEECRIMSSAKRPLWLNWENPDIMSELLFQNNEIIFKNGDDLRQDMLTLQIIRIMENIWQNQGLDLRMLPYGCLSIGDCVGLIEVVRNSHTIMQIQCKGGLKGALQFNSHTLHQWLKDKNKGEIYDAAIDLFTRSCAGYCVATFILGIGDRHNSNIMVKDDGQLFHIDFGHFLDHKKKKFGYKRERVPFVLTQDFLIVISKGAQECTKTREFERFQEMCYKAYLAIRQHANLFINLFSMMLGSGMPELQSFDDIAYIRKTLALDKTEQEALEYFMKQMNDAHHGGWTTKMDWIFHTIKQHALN

Structure (SMILES)	pIC50 [1]	inhibition (RAW264.7 [2])	pIC50 [3]	inhibition (RAW264.7 [4])	inhibition [5]	inhibition [6]	pIC50 [7]	pIC50 [8]	inhibition [9]
Cn1c(=O)n(C)c2ccc3ccc4ccc1c2c43	5.25	Tde	4.93	Dose-Dependent Effect	80%	Dose-Dependent Effect	5.61	5.30	Dose-Dependent Effect
Cn1c(=O)c2cc(S(=O)(=O)NC3CC3)ccc2n(C)c1=O	–	–	–	–	40%	–	4.80	–	–
Cn1c(=O)c2cc(S(N)(=O)=O)ccc2n(C)c1=O	–	–	–	–	55%	–	4.76	–	–
